Test system: glioblastoma brain cancer cell line LN-229
Experiment: Cytotoxicity assay (CCK8 viability)
Type: cell-based
Settings: Homo sapiens, cytotoxicity against LN-229, 18 hours incubation, 1% FBS media
Description: Cytoxocity assay: Cells were seeded on a 96 well polystyrene plate in full serum media at a density of 75,000 cells per milliliter, 100 μL per well. Plates were incubated at 37° C. and 5% CO2 for 24 hours to allow cell attachment. Drug solutions were prepared in DMSO at 100× concentration and mixed 1:100 in 1% FBS media to yield the desired concentration. Drug-media mixtures were vortexed immediately prior to administration to cells. Full serum media was removed and replaced with drug-media mixtures and incubated for 18 hours. 10 μL of Cell Counting Kit 8 (CCK8, Dojindo# CK04-11) was added to each well to colormetrically assess viability. After 2-4 hours of incubation with the CCK8 dye, absorbance was read at 450 nm by a BioTek Synergy 2 plate reader.
The cytotoxicity of selected compounds against the glioblastoma brain cancer cell line LN-229 is depicted in Table 1.

| Structure (SMILES) | EC50 [µM] |
| --- | --- |
| CCCCCCC(C)(C)c1cc2c(c(O)n1)[C@@H]1C[C@H](C)CC[C@@H]1C(C)(C)O2 [Compound 6b, (6aS,9R,10aR)-6,6,9-trimethyl-3-(2-methyloctan-2-yl)-6a,7,8,9,10,10a-hexahydro-6H-isochromeno[4,3-c]pyridin-1-ol] | 2.43 |
| CCCCCCC(C)(C)c1cc2c(c(O)n1)[C@H]1C[C@@H](C)CC[C@H]1C(C)(C)O2 [Compound 6c, (6aR, 9S, 10aS)-6,6,9-trimethyl-3-(2-methyloctan-2-yl)-6a,7,8,9,10,10a-hexahydro-6H-isochromeno[4,3-c]pyridin-1-ol] | 1.83 |
